Data published in US20240398795A1, “COMBINATION THERAPIES USING PRMT5 INHIBITORS FOR THE TREATMENT OF CANCER” (MIRATI THERAPEUTICS, INC., priority 2021, published 2024).

What was measured:
Type in all cases: in vivo, mice
H1650 xenograft tumors = assay: NCI-H1650 xenograft tumor volume study; settings: n=5, MRTX1719 100 mg/kg PO QD, Docetaxel 10 mg/kg IP Q7D, combination 100 mg/kg PO QD + 10 mg/kg IP Q7D
Protocol: (§1) Immunodeficient female nu/nu or BALBC/Nude mice were subcutaneously implanted with 3×10^6 to 1×10^7 human derived cancer cells depending on the cell line xenograft model. Tumors were measured using calipers until they reached approximately 100-150 mm^3. […] Tumor volume was measured twice a week (n=5/treatment group). Average tumor volume and standard error of the mean was calculated and plotted at each study day in GraphPad.
(§2) This example was carried out according to the study procedure described above. The PRMT5 inhibitor was MRTX1719 administered at 100 mg/kg once a day (QD). MRTX1719 is (2M)-2-(4-(4-(aminomethyl)-1-oxo-1,2-dihydrophthalazin-6-yl)-1-methyl-1H-pyrazol-5-yl)-4-chloro-6-cyclopropoxy-3-fluorobenzonitrile, disclosed as Example 16-8 at p. 307 of the International patent publication No. WO 2021/050915 A1, published 18 Mar. 2021, incorporated by reference in its entirety.

[1] = system: NCI-H2228 xenograft tumors; assay: NCI-H2228 xenograft tumor volume study; settings: n=5, MRTX1719 100 mg/kg PO QD, Docetaxel 10 mg/kg IP Q7D, combination 100 mg PO QD + 10 mg/kg IP Q7D
Protocol: as §1, §2
Substantially the same procedure as Example 1 was repeated except with mice bearing NCI-H2228 xenograft tumors.

A549 xenograft tumors = assay: A549 xenograft tumor volume study; settings: n=5, MRTX1719 100 mg/kg PO QD, Docetaxel 15 mg/kg IP Q7D, combination 100 mg PO QD + 15 mg/kg IP Q7D
Protocol: as §1, §2
Substantially the same procedure as Example 1 was repeated except with mice bearing A549 xenograft tumors.

HCC4006 xenograft tumors = assay: HCC4006 xenograft tumor volume study; settings: n=5, MRTX1719 100 mg/kg PO QD, Docetaxel 10 mg/kg IP Q7D, combination 100 mg PO QD + 10 mg/kg IP Q7D
Protocol: as §1, §2
Substantially the same procedure as Example 1 was repeated except with mice bearing HCC4006 xenograft tumors.

SW1573 xenograft tumors = assay: SW1573 xenograft tumor volume study; settings: n=5, MRTX1719 50 mg/kg PO QD, Docetaxel 15 mg/kg IP Q7D, combination 50 mg PO QD + 15 mg/kg IP Q7D
Protocol: as §1
as §2, with “The PRMT5 inhibitor was MRTX1719 administered at 100 mg/kg once a day (QD).” left out
Substantially the same procedure as Example 1 was repeated except with mice bearing SW1573 xenograft tumors.

LU99 xenograft tumors = assay: LU99 xenograft tumor volume study; settings: n=5, MRTX1719 50 mg/kg PO QD, Docetaxel 15 mg/kg IP Q7D, combination 50 mg PO QD + 15 mg/kg IP Q7D
Protocol: as §1
as §2, with “The PRMT5 inhibitor was MRTX1719 administered at 100 mg/kg once a day (QD).” left out
Substantially the same procedure of Example 1 was repeated except with mice bearing LU99 xenograft tumors.

[2] = system: MIAPaCa-2 xenograft tumors; assay: MIAPaCa-2 xenograft tumor volume study; settings: n=5, MRTX1719 100 mg/kg PO QD, Docetaxel 15 mg/kg IP Q7D, combination 100 mg PO QD + 15 mg/kg IP Q7D
Protocol: as §1
This example was carried out according to the study procedure described above. The PRMT5 inhibitor was MRTX1719 administered at 100 mg/kg once a day (QD). […] 307 of the International patent publication No. WO 2021/050915 A1, published 18 Mar. 2021, incorporated by reference in its entirety.
Substantially the same procedure of Example 1 was repeated except with mice bearing MIAPaCa-2 xenograft tumors.

KP4 xenograft tumors = assay: KP4 xenograft tumor volume study; settings: n=5, Docetaxel 15 mg/kg IP Q7D, combination 100 mg PO QD + 15 mg/kg IP Q7D
Protocol: as §1, §2
Substantially the same procedure of Example 1 was repeated except with mice bearing KP4 xenograft tumors.

CC(=O)O[C@@]12CO[C@@H]1C[C@H](O)[C@@]1(C)C(=O)[C@H](O)C3=C(C)[C@@H](OC(=O)[C@H](O)[C@@H](NC(=O)OC(C)(C)C)c4ccccc4)C[C@@](O)([C@@H](OC(=O)c4ccccc4)[C@H]21)C3(C)C [Docetaxel, docetaxel] was tested, and the “Tumor Volume, Mean” value (H1650 xenograft tumors; Day 0) was 147 mm^3, the “Tumor Volume, Mean” value (H1650 xenograft tumors; Day 3) was 291 mm^3 and the “Tumor Volume, Mean” value (H1650 xenograft tumors; Day 7) was 425 mm^3. The “Tumor Volume, Mean” value (H1650 xenograft tumors; Day 10) was 660 mm^3, the “Tumor Volume, Mean” value (H1650 xenograft tumors; Day 14) was 710 mm^3 and the “Tumor Volume, Mean” value (H1650 xenograft tumors; Day 17) was 770 mm^3. The “Tumor Volume, Mean” value (H1650 xenograft tumors; Day 20) was 826 mm^3, the “Tumor Volume, Mean” value ([1]; Day 0) was 121 mm^3 and the “Tumor Volume, Mean” value ([1]; Day 3) was 100 mm^3. The “Tumor Volume, Mean” value ([1]; Day 6) was 73 mm^3, the “Tumor Volume, Mean” value ([1]; Day 9) was 76 mm^3 and the “Tumor Volume, Mean” value ([1]; Day 13) was 68 mm^3. The “Tumor Volume, Mean” value ([1]; Day 16) was 42 mm^3, the “Tumor Volume, Mean” value ([1]; Day 20) was 15 mm^3 and the “Tumor Volume, Mean” value ([1]; Day 23) was 10 mm^3. The “Tumor Volume, Mean” value ([1]; Day 27) was 12 mm^3, the “Tumor Volume, Mean” value (A549 xenograft tumors; Day 1) was 118 mm^3 and the “Tumor Volume, Mean” value (A549 xenograft tumors; Day 5) was 128 mm^3. The “Tumor Volume, Mean” value (A549 xenograft tumors; Day 8) was 156 mm^3, the “Tumor Volume, Mean” value (A549 xenograft tumors; Day 12) was 160 mm^3 and the “Tumor Volume, Mean” value (A549 xenograft tumors; Day 15) was 169 mm^3. For the same molecule, the “Tumor Volume, Mean” value (A549 xenograft tumors; Day 19) was 167 mm^3, the “Tumor Volume, Mean” value (A549 xenograft tumors; Day 22) was 163 mm^3 and the “Tumor Volume, Mean” value (A549 xenograft tumors; Day 26) was 162 mm^3. The “Tumor Volume, Mean” value (A549 xenograft tumors; Day 29) was 189 mm^3, the “Tumor Volume, Mean” value (A549 xenograft tumors; Day 34) was 239 mm^3 and the “Tumor Volume, Mean” value (HCC4006 xenograft tumors; Day 0) was 126 mm^3. The “Tumor Volume, Mean” value (HCC4006 xenograft tumors; Day 2) was 151 mm^3, the “Tumor Volume, Mean” value (HCC4006 xenograft tumors; Day 5) was 139 mm^3 and the “Tumor Volume, Mean” value (HCC4006 xenograft tumors; Day 9) was 140 mm^3. For the same molecule, the “Tumor Volume, Mean” value (HCC4006 xenograft tumors; Day 12) was 150 mm^3, the “Tumor Volume, Mean” value (HCC4006 xenograft tumors; Day 16) was 143 mm^3 and the “Tumor Volume, Mean” value (HCC4006 xenograft tumors; Day 20) was 137 mm^3. The “Tumor Volume, Mean” value (SW1573 xenograft tumors; Day 0) was 141 mm^3, the “Tumor Volume, Mean” value (SW1573 xenograft tumors; Day 3) was 148 mm^3 and the “Tumor Volume, Mean” value (SW1573 xenograft tumors; Day 8) was 191 mm^3. The “Tumor Volume, Mean” value (SW1573 xenograft tumors; Day 10) was 231 mm^3, the “Tumor Volume, Mean” value (SW1573 xenograft tumors; Day 14) was 281 mm^3 and the “Tumor Volume, Mean” value (SW1573 xenograft tumors; Day 17) was 302 mm^3. For the same molecule, the “Tumor Volume, Mean” value (SW1573 xenograft tumors; Day 21) was 352 mm^3, the “Tumor Volume, Mean” value (LU99 xenograft tumors; Day 0) was 153 mm^3 and the “Tumor Volume, Mean” value (LU99 xenograft tumors; Day 5) was 184 mm^3. For the same molecule, the “Tumor Volume, Mean” value (LU99 xenograft tumors; Day 8) was 299 mm^3, the “Tumor Volume, Mean” value (LU99 xenograft tumors; Day 12) was 459 mm^3 and the “Tumor Volume, Mean” value (LU99 xenograft tumors; Day 15) was 757 mm^3. The “Tumor Volume, Mean” value (LU99 xenograft tumors; Day 20) was 1057 mm^3, the “Tumor Volume, Mean” value (LU99 xenograft tumors; Day 22) was 1255 mm^3 and the “Tumor Volume, Mean” value (LU99 xenograft tumors; Day 26) was 1722 mm^3. For the same molecule, the “Tumor Volume, Mean” value ([2]; Day 1) was 133 mm^3, the “Tumor Volume, Mean” value ([2]; Day 5) was 187 mm^3 and the “Tumor Volume, Mean” value ([2]; Day 13) was 268 mm^3. The “Tumor Volume, Mean” value ([2]; Day 16) was 315 mm^3, the “Tumor Volume, Mean” value ([2]; Day 19) was 375 mm^3 and the “Tumor Volume, Mean” value ([2]; Day 22) was 415 mm^3. For the same molecule, the “Tumor Volume, Mean” value (KP4 xenograft tumors; Day 0, MRTX1719 100 mg/kg PO QD) was 144 mm^3, the “Tumor Volume, Mean” value (KP4 xenograft tumors; Day 5, MRTX1719 100 mg/kg PO QD) was 121 mm^3 and the “Tumor Volume, Mean” value (KP4 xenograft tumors; Day 7, MRTX1719 100 mg/kg PO QD) was 105 mm^3. For the same molecule, the “Tumor Volume, Mean” value (KP4 xenograft tumors; Day 11, MRTX1719 100 mg/kg PO QD) was 90 mm^3, the “Tumor Volume, Mean” value (KP4 xenograft tumors; Day 14, MRTX1719 100 mg/kg PO QD) was 82 mm^3 and the “Tumor Volume, Mean” value (KP4 xenograft tumors; Day 19, MRTX1719 100 mg/kg PO QD) was 126 mm^3. The “Tumor Volume, Mean” value (KP4 xenograft tumors; Day 21, MRTX1719 100 mg/kg PO QD) was 272 mm^3, the “Tumor Volume, Mean” value (KP4 xenograft tumors; Day 25) was 482 mm^3 and the “Tumor Volume, Mean” value (KP4 xenograft tumors; Day 28) was 592 mm^3. The “Tumor Volume, Mean” value (KP4 xenograft tumors; Day 32) was 785 mm^3 and the “Tumor Volume, Mean” value (KP4 xenograft tumors; Day 35) was 895 mm^3.
